Measured values as given in US9334264B2, “NAMPT inhibitors” (AbbVie Inc., priority 2012, dated 2016).

How the values were obtained:
[1] = molecular target: NAMPT (human, recombinant, C-terminally His-tagged) (Homo sapiens, UniProt P43490); experiment: Time-Resolved Fluorescence Resonance Energy Transfer (TR-FRET) Binding Assay of NAMPT; details: absence of substrates; 6.8 nM NAMPT, 200 nM probe, equilibrated 3 hours
How it was run: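 Compounds (typically 11 half-log dilutions, 2% DMSO final) equilibrated 3 h at room temperature with 6.8 nM human C-His NAMPT, 1 nM Tb-anti-His antibody and 200 nM fluorescent competitive probe in pH 7.5 HEPES buffer. IC50 derived by logistic fit of normalized TR-FRET ratio (520/495 nm).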

NAMPT = NAMPT (Homo sapiens, UniProt P43490); experiment: Time-Resolved Fluorescence Resonance Energy Transfer (TR-FRET) Binding Assay of NAMPT with PRPP; details: 200 μM PRPP and 2.5 mM ATP; 2 nM NAMPT, 2 nM probe, equilibrated 16 hours
How it was run: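 Compounds were equilibrated for 16 hours before TR-FRET readout, with substrates present (200 μM PRPP, 2.5 mM ATP) to permit enzymatic modification. Final mix: 2 nM His-tagged NAMPT, 2 nM probe, 1 nM Tb-anti-His antibody, 2% DMSO.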

NAMPT (human, recombinant, C-terminally His-tagged), sequence (P43490 whole entry): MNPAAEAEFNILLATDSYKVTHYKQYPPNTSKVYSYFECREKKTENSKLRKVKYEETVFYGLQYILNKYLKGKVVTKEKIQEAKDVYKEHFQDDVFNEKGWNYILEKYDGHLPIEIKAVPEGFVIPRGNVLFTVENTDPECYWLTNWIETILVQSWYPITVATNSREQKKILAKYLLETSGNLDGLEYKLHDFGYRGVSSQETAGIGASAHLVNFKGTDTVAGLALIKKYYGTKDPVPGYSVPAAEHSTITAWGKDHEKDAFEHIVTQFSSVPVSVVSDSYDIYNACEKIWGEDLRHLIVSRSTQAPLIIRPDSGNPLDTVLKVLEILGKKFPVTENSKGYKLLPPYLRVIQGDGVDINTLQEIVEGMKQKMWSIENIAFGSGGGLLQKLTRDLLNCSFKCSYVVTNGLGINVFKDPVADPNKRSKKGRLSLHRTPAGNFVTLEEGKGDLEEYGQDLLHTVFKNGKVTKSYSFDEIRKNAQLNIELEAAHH
NAMPT, sequence (P43490 whole entry): as above

Compound | IC50 [1] [nM] | IC50 (NAMPT) [nM]
N#Cc1ccc(CN(C(=O)NCCCCO)c2ncc(C(=O)NCCCn3ccnc3)s2)cc1 [Example 132, 2-{(4-cyanobenzyl)[(4-hydroxybutyl)carbamoyl]amino}-N-[3-(1H-imidazol-1-yl)propyl]-1,3-thiazole-5-carboxamide] | 4850 | 1.02
N#Cc1ccc(C(=O)N(Cc2ccc(F)cc2)c2ncc(C(=O)NCCCn3ccnc3)s2)cc1 [Example 11, 2-[(4-cyanobenzoyl)(4-fluorobenzyl)amino]-N-[3-(1H-imidazol-1-yl)propyl]-1,3-thiazole-5-carboxamide] | 476 | 0.47
O=C(NCCCn1ccnc1)c1cnc(N(Cc2ccc(F)cc2)C(=O)CC2CCOCC2)s1 [Example 4, 2-[(4-fluorobenzyl)(tetrahydro-2H-pyran-4-ylacetyl)amino]-N-[3-(1H-imidazol-1-yl)propyl]-1,3-thiazole-5-carboxamide] | 1220 | 0.548
COCCC(=O)N(CC(O)c1ccc(OC)cc1)c1ncc(C(=O)NCCCn2ccnc2)s1 (stereo not shown) [Example 109, 2-{[2-hydroxy-2-(4-methoxyphenyl)ethyl](3-methoxypropanoyl)amino}-N-[3-(1H-imidazol-1-yl)propyl]-1,3-thiazole-5-carboxamide acetate (1:1)] | > 10000 | 3.74
CC1CCN(CC(=O)N(Cc2ccc(F)cc2)c2ncc(C(=O)NCCCn3ccnc3)s2)CC1 [Example 28, 2-{(4-fluorobenzyl)[(4-methylpiperidin-1-yl)acetyl]amino}-N-[3-(1H-imidazol-1-yl)propyl]-1,3-thiazole-5-carboxamide] | 7020 | 0.833
O=C(NCCCn1ccnc1)c1cnc(N(Cc2ccc(F)cc2)C(=O)CN2CCC(O)CC2)s1 [Example 29, 2-{(4-fluorobenzyl)[(4-hydroxypiperidin-1-yl)acetyl]amino}-N-[3-(1H-imidazol-1-yl)propyl]-1,3-thiazole-5-carboxamide] | > 10000 | 2.16
O=CN1CCN(CC(=O)N(Cc2ccc(F)cc2)c2ncc(C(=O)NCCCn3ccnc3)s2)CC1 [Example 32, 2-{(4-fluorobenzyl)[(4-formylpiperazin-1-yl)acetyl]amino}-N-[3-(1H-imidazol-1-yl)propyl]-1,3-thiazole-5-carboxamide] | > 10000 | 1.33
O=C(NCCCn1ccnc1)c1cnc(N(Cc2ccc(F)cc2)C(=O)c2ccc(F)cc2)s1 [Example 13, 2-[(4-fluorobenzoyl)(4-fluorobenzyl)amino]-N-[3-(1H-imidazol-1-yl)propyl]-1,3-thiazole-5-carboxamide] | 1750 | 0.403
O=C(NCCCn1ccnc1)c1cnc(N(Cc2ccc(F)cc2)C(=O)NCC2CCCCO2)s1 (stereo not shown) [Example 81, 2-{(4-fluorobenzyl)[(tetrahydro-2H-pyran-2-ylmethyl)carbamoyl]amino}-N-[3-(1H-imidazol-1-yl)propyl]-1,3-thiazole-5-carboxamide] | 5280 | 1.78
O=C(NCCCn1ccnc1)c1cnc(N(Cc2ccc(F)cc2)C(=O)NCC2CCCO2)s1 (stereo not shown) [Example 79, 2-{(4-fluorobenzyl)[(tetrahydrofuran-2-ylmethyl)carbamoyl]amino}-N-[3-(1H-imidazol-1-yl)propyl]-1,3-thiazole-5-carboxamide] | 6580 | 2.77
N#Cc1ccc(CN(C(=O)NCCC(N)=O)c2ncc(C(=O)NCCCn3ccnc3)s2)cc1 [Example 140, 2-{[(3-amino-3-oxopropyl)carbamoyl](4-cyanobenzyl)amino}-N-[3-(1H-imidazol-1-yl)propyl]-1,3-thiazole-5-carboxamide] | > 10000 | 22.3
COCCC(=O)N(CC1CCCO1)c1ncc(C(=O)NCCCn2ccnc2)s1 (stereo not shown) [Example 178, N-[3-(1H-imidazol-1-yl)propyl]-2-[(3-methoxypropanoyl)(tetrahydrofuran-2-ylmethyl)amino]-1,3-thiazole-5-carboxamide] | 6970 | 0.813
CC(C)CCNC(=O)N(Cc1ccc(F)cc1)c1ncc(C(=O)NCCCn2ccnc2)s1 [Example 63, 2-{(4-fluorobenzyl)[(3-methylbutyl)carbamoyl]amino}-N-[3-(1H-imidazol-1-yl)propyl]-1,3-thiazole-5-carboxamide] | 2250 | 0.693
O=C(NCCCn1ccnc1)c1cnc(N(Cc2ccc(F)cc2)C(=O)CN2CCN3CCCC3C2)s1 (stereo not shown) [Example 33, 2-[(4-fluorobenzyl)(hexahydropyrrolo[1,2-a]pyrazin-2(1H)-ylacetyl)amino]-N-[3-(1H-imidazol-1-yl)propyl]-1,3-thiazole-5-carboxamide] | 8950 | 1.22
COCC(=O)N(Cc1ccc(F)cc1)c1ncc(C(=O)NCCCn2ccnc2)s1 [Example 24, 2-[(4-fluorobenzyl)(methoxyacetyl)amino]-N-[3-(1H-imidazol-1-yl)propyl]-1,3-thiazole-5-carboxamide] | 4140 | 0.682
O=C(NCCCn1ccnc1)c1cnc(N(Cc2ccc(F)cc2)C(=O)CN2CCN(CCO)CC2)s1 [Example 42, 2-[(4-fluorobenzyl){[4-(2-hydroxyethyl)piperazin-1-yl]acetyl}amino]-N-[3-(1H-imidazol-1-yl)propyl]-1,3-thiazole-5-carboxamide] | > 10000 | 24.6
C=CCN1CCN(CC(=O)N(Cc2ccc(F)cc2)c2ncc(C(=O)NCCCn3ccnc3)s2)CC1 [Example 37, 2-[(4-fluorobenzyl){[4-(prop-2-en-1-yl)piperazin-1-yl]acetyl}amino]-N-[3-(1H-imidazol-1-yl)propyl]-1,3-thiazole-5-carboxamide] | 4810 | 0.531
COCCC(=O)N(CCc1ccc(Cl)cc1)c1ncc(C(=O)NCCCn2ccnc2)s1 [Example 103, 2-{[2-(4-chlorophenyl)ethyl](3-methoxypropanoyl)amino}-N-[3-(1H-imidazol-1-yl)propyl]-1,3-thiazole-5-carboxamide acetate (1:1)] | 709 | 3.06
COCCC(=O)N(CCc1cccc(OC)c1)c1ncc(C(=O)NCCCn2ccnc2)s1 [Example 107, N-[3-(1H-imidazol-1-yl)propyl]-2-{[2-(3-methoxyphenyl)ethyl](3-methoxypropanoyl)amino}-1,3-thiazole-5-carboxamide acetate (1:1)] | 814 | 2.24
CC(C)CCN(C(=O)C(C)c1ccccc1)c1ncc(C(=O)NCCCn2ccnc2)s1 (stereo not shown) [Example 138, N-[3-(1H-imidazol-1-yl)propyl]-2-[(3-methylbutyl)(2-phenylpropanoyl)amino]-1,3-thiazole-5-carboxamide] | 55.5 | 0.541
O=C(NCCCn1ccnc1)c1cnc(N(Cc2ccc(F)cc2)C(=O)NCC2COCCO2)s1 (stereo not shown) [Example 88, 2-{[(1,4-dioxan-2-ylmethyl)carbamoyl](4-fluorobenzyl)amino}-N-[3-(1H-imidazol-1-yl)propyl]-1,3-thiazole-5-carboxamide] | > 10000 | 0.602
COC(C)CNC(=O)N(Cc1ccc(C#N)cc1)c1ncc(C(=O)NCCCn2ccnc2)s1 (stereo not shown) [Example 124, 2-{(4-cyanobenzyl)[(2-methoxypropyl)carbamoyl]amino}-N-[3-(1H-imidazol-1-yl)propyl]-1,3-thiazole-5-carboxamide] | 3520 | 0.624
O=C(NCCCn1ccnc1)c1cnc(N(Cc2ccc(F)cc2)C(=O)NCC2OCCO2)s1 [Example 86, 2-{[(1,3-dioxolan-2-ylmethyl)carbamoyl](4-fluorobenzyl)amino}-N-[3-(1H-imidazol-1-yl)propyl]-1,3-thiazole-5-carboxamide] | > 10000 | 2.66
O=C(NCCCn1ccnc1)c1cnc(N2CCN(CCO)C2=O)s1 [Example 203, 2-[3-(2-hydroxyethyl)-2-oxoimidazolidin-1-yl]-N-[3-(1H-imidazol-1-yl)propyl]-1,3-thiazole-5-carboxamide] | > 10000 | 13.6
O=C(NCCCn1ccnc1)c1cnc(N2CCN(c3ccc(F)cc3)C2=O)s1 [Example 204, 2-[3-(4-fluorophenyl)-2-oxoimidazolidin-1-yl]-N-[3-(1H-imidazol-1-yl)propyl]-1,3-thiazole-5-carboxamide] | 3730 | 1.46
N#Cc1ccc(CCN(C(=O)CC2CCOCC2)c2ncc(C(=O)NCCCn3ccnc3)s2)cc1 [Example 49, 2-{[2-(4-cyanophenyl)ethyl](tetrahydro-2H-pyran-4-ylacetyl)amino}-N-[3-(1H-imidazol-1-yl)propyl]-1,3-thiazole-5-carboxamide] | 1690 | 1.07
O=C(NCCCn1ccnc1)c1cnc(N(Cc2ccc(F)cc2)Cc2ccc(Cl)cc2)s1 [Example 15, 2-[(4-chlorobenzyl)(4-fluorobenzyl)amino]-N-[3-(1H-imidazol-1-yl)propyl]-1,3-thiazole-5-carboxamide] | 3820 | 92.1
CC(C)(CNC(=O)N(Cc1ccc(C#N)cc1)c1ncc(C(=O)NCCCn2ccnc2)s1)C(=O)O [Example 169, 3-{[(4-cyanobenzyl)(5-{[3-(1H-imidazol-1-yl)propyl]carbamoyl}-1,3-thiazol-2-yl)carbamoyl]amino}-2,2-dimethylpropanoic acid] | 8450 | 266
COCCC(=O)N(Cc1ccc(C)cn1)c1ncc(C(=O)NCCCn2ccnc2)s1 [Example 117, N-[3-(1H-imidazol-1-yl)propyl]-2-{(3-methoxypropanoyl)[(5-methylpyridin-2-yl)methyl]amino}-1,3-thiazole-5-carboxamide] | 1250 | 3.02
